Data taken from ChEMBL document CHEMBL1201862, “PubChem BioAssay data set” (2004).
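Growth conditions: 96-well plates. Treatment: test compound, 48 hours, 5 concentrations. Analysis: linear interpolation between bracketing concentrations; unreached endpoints set to highest concentration. Abbreviation: GI50, concentration required for 50% inhibition of growth.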 The source made the active and inactive calls. Cut-off read from the data, not from the text of the source: active = GI50 up to about 1.1 µM and inactive = higher.

Tests used:
Assay in all cases: NCI tumour cell line growth inhibition, 48 h
[1] = tested on: 786-0
[2] = tested on: NCI-H23
[3] = tested on: HT-29
[4] = tested on: RPMI-8226
[5] = tested on: A549
[6] = tested on: HOP-92
[7] = tested on: SK-OV-3
[8] = tested on: RXF 393
[9] = tested on: U-251
[10] = tested on: KM12
[11] = tested on: OVCAR-3
[12] = tested on: K562
[13] = tested on: MOLT-4
[14] = tested on: HCT-15
[15] = tested on: NCI-H522
[16] = tested on: SF-268
[17] = tested on: SF-539
[18] = tested on: UO-31
[19] = tested on: SF-295
[20] = tested on: OVCAR-8
[21] = tested on: UACC-62
[22] = tested on: SK-MEL-2
[23] = tested on: SR
[24] = tested on: HCC 2998
[25] = tested on: M14
[26] = tested on: LOX IMVI
[27] = tested on: DLD-1
[28] = tested on: HCT-116
[29] = tested on: Malme-3M
[30] = tested on: SNB-78
[31] = tested on: COLO 205
[32] = tested on: HOP-62
[33] = tested on: OVCAR-4
[34] = tested on: M19-MEL
[35] = tested on: CAKI-1
[36] = tested on: ACHN
[37] = tested on: SW-620
[38] = tested on: IGROV-1
[39] = tested on: UACC-257
[40] = tested on: HL-60
[41] = tested on: NCI-H460
[42] = tested on: SN12C
[43] = tested on: XF498
[44] = tested on: CCRF-CEM
[45] = tested on: NCI-H226
[46] = tested on: KM-20L2
[47] = tested on: LXFL 529
[48] = tested on: A498
[49] = tested on: SK-MEL-5
[50] = tested on: SNB-19
[51] = tested on: EKVX
[52] = tested on: OVCAR-5
[53] = tested on: SNB-75
[54] = tested on: SK-MEL-28
[55] = tested on: TK-10
[56] = tested on: MDA-N
[57] = tested on: BT-549
[58] = tested on: PC-3
[59] = tested on: NCI/ADR-RES
[60] = tested on: T47D
[61] = tested on: MDA-MB-435
[62] = tested on: Hs-578T
[63] = tested on: DU-145
[64] = tested on: MCF7
[65] = tested on: MDA-MB-231

Oc1cc(CN2CCOCCOCCOCCOCC2)c(O)cc1CN1CCOCCOCCOCCOCC1
GI50 [1]: 27.2 µM (inactive) | GI50 [2]: > 78.5 µM (inactive) | GI50 [3]: > 47.2 µM (inactive) | GI50 [4]: 26.2 µM (inactive) | GI50 [5]: > 100 µM (inactive) | GI50 [6]: 21.2 µM (inactive) | GI50 [7]: > 100 µM (inactive) | GI50 [8]: 23.8 µM (inactive) | GI50 [9]: > 41.5 µM (inactive) | GI50 [10]: > 100 µM (inactive) | GI50 [11]: 61.8 µM (inactive) | GI50 [12]: 24.4 µM (inactive) | GI50 [13]: 24.3 µM (inactive) | GI50 [14]: 34.9 µM | GI50 [15]: 11.8 µM (inactive) | GI50 [16]: > 56.5 µM (inactive) | GI50 [17]: > 100 µM (inactive) | GI50 [18]: > 71.3 µM (inactive) | GI50 [19]: > 100 µM (inactive) | GI50 [20]: 40.5 µM (inactive) | GI50 [21]: 29.2 µM (inactive) | GI50 [22]: > 50.7 µM (inactive) | GI50 [23]: 20.3 µM (inactive) | GI50 [24]: > 100 µM (inactive) | GI50 [25]: 18.3 µM (inactive) | GI50 [26]: 24.5 µM (inactive) | GI50 [27]: 22.1 µM (inactive) | GI50 [28]: 22.9 µM (inactive) | GI50 [29]: > 10 µM (inactive) | GI50 [30]: > 57.1 µM (inactive) | GI50 [31]: 21.2 µM (inactive) | GI50 [32]: > 100 µM (inactive) | GI50 [33]: 18.4 µM (inactive) | GI50 [34]: 14.1 µM (inactive) | GI50 [35]: 18.1 µM (inactive) | GI50 [36]: 23.9 µM (inactive) | GI50 [37]: 24.4 µM (inactive) | GI50 [38]: > 78 µM (inactive) | GI50 [39]: > 100 µM (inactive) | GI50 [40]: 23.8 µM (inactive) | GI50 [41]: > 100 µM (inactive) | GI50 [42]: > 10 µM (inactive) | GI50 [43]: 22 µM (inactive) | GI50 [44]: 18.6 µM (inactive) | GI50 [45]: > 61.5 µM (inactive) | GI50 [46]: > 50.6 µM (inactive) | GI50 [47]: 21.1 µM (inactive) | GI50 [48]: > 75.3 µM (inactive) | GI50 [49]: > 61.2 µM (inactive) | GI50 [50]: > 100 µM (inactive) | GI50 [51]: > 100 µM (inactive) | GI50 [52]: 22.8 µM (inactive) | GI50 [53]: > 78.7 µM (inactive) | GI50 [54]: 24 µM (inactive) | GI50 [55]: > 56.2 µM (inactive)

N=C(N)NS(=O)(=O)c1ccc(NC(=O)c2cccc3c(NNc4ccc(C(=O)O)cc4)c4ccccc4nc23)cc1
GI50 [1]: > 100 µM (inactive) | GI50 [2]: > 100 µM (inactive) | GI50 [56]: > 100 µM (inactive) | GI50 [57]: > 100 µM (inactive) | GI50 [3]: 41.4 µM (inactive) | GI50 [4]: > 100 µM (inactive) | GI50 [5]: > 100 µM (inactive) | GI50 [58]: 46.3 µM (inactive) | GI50 [6]: 24.2 µM (inactive) | GI50 [7]: 47.2 µM (inactive) | GI50 [8]: > 100 µM (inactive) | GI50 [9]: 34.6 µM (inactive) | GI50 [10]: 45.2 µM (inactive) | GI50 [11]: 46.7 µM (inactive) | GI50 [12]: 50.1 µM (inactive) | GI50 [13]: 44.9 µM (inactive) | GI50 [14]: > 100 µM | GI50 [15]: 51.1 µM (inactive) | GI50 [16]: 58.7 µM (inactive) | GI50 [17]: 71.3 µM (inactive) | GI50 [18]: 32.7 µM (inactive) | GI50 [19]: > 100 µM (inactive) | GI50 [20]: > 100 µM (inactive) | GI50 [21]: 70.1 µM (inactive) | GI50 [59]: > 100 µM (inactive) | GI50 [22]: 22.9 µM (inactive) | GI50 [60]: 39.6 µM (inactive) | GI50 [23]: 33.5 µM (inactive) | GI50 [24]: 52.2 µM (inactive) | GI50 [25]: > 100 µM (inactive) | GI50 [26]: 48.4 µM (inactive) | GI50 [28]: 59 µM (inactive) | GI50 [29]: 93.1 µM (inactive) | GI50 [31]: 65 µM (inactive) | GI50 [32]: > 100 µM (inactive) | GI50 [61]: 95.7 µM (inactive) | GI50 [33]: > 100 µM (inactive) | GI50 [35]: > 100 µM (inactive) | GI50 [36]: > 100 µM (inactive) | GI50 [37]: > 100 µM (inactive) | GI50 [38]: > 100 µM (inactive) | GI50 [39]: > 100 µM (inactive) | GI50 [40]: 32.6 µM (inactive) | GI50 [62]: > 100 µM (inactive) | GI50 [41]: 67.3 µM (inactive) | GI50 [42]: > 100 µM (inactive) | GI50 [44]: 25.8 µM (inactive) | GI50 [45]: 64 µM (inactive) | GI50 [63]: 48.5 µM (inactive) | GI50 [48]: 24.4 µM (inactive) | GI50 [64]: > 100 µM (inactive) | GI50 [49]: 99.1 µM (inactive) | GI50 [65]: 61 µM (inactive) | GI50 [50]: 57.8 µM (inactive) | GI50 [51]: 26.6 µM (inactive) | GI50 [52]: > 100 µM (inactive) | GI50 [53]: > 100 µM (inactive) | GI50 [54]: > 100 µM (inactive) | GI50 [55]: > 100 µM (inactive)

CNc1nc(N(C)C)nc(N(C)C)n1 [PENTAMETHYL MELAMINE]
GI50 [47]: > 100 µM (inactive)
